US4515811A, “Process for the resolution of d,1 2-(6-methoxy-2-naphthyl)propionic acid” (Syntex Corporation, priority 1980, dated 1985)
Where a name gives a salt, the structure may show the parent alone. Read-outs that look alike come from different tables or passages of the source.

How the values were obtained:
[1] = test system: carrageenin-induced paw inflammation in the rat; conditions: female rats, relative to phenylbutazone = 1, molar basis
Experimental: The anti-inflammatory activity of each of the compounds listed below is compared with the activity of phenylbutazone by means of the carrageenin-induced rat paw inflammation test described below.
TEST FOR ANTI-INFLAMMATORY ACTIVITY UTILIZING CARRAGEENIN-INDUCED PAW INFLAMMATION IN THE RAT
Materials and Methods--Female rats weighing 80-90 grams are used. The test materials are given at hour 0 orally by gavage in 1 ml. aqueous vehicle. At hour 1, 0.05 ml. of a 1% solution (in 0.9% NaCl) of carrageenin is injected into the right hind paw. This injection causes an inflammation of the paw. The rats are sacrificed at hour 4, at which time both hind paws are removed and weighed separately.
End point: % increase in paw size calculated as follows: [formula]

[2] = Solubility of resolving agent in water; format: physicochemical
[3] = Example 32, oral gavage at hour 0, carrageenin at hour 1, sacrificed hour 4
[4] = Example 33, test of Example 32 repeated, oral

Row | SMILES | Oral Anti-Inflammatory Activity (on a molar equivalent basis) (Phenylbutazone = 1) [1, 3] | further results
1 | COc1ccc2cc([C@H](C)C(=O)O)ccc2c1 [N-cyclohexyl-D-glucamine salt of d 2-(6-methoxy-2-naphthyl)p] [N-cyclohexyl-D-glucamine salt of d 2-(6-methoxy-2-naphthyl)propionic acid] | 11 | 
2 | COc1ccc2cc([C@H](C)C(=O)O)ccc2c1 [N-n-butyl-D-glucamine salt of d 2-(6-methoxy-2-naphthyl)prop] [N-n-butyl-D-glucamine salt of d 2-(6-methoxy-2-naphthyl)propionic acid] | 5 | 
3 | COc1ccc2cc([C@H](C)C(=O)O)ccc2c1 [N-n-octadecyl-D-glucamine salt of d 2-(6-methoxy-2-naphthyl)] [N-n-octadecyl-D-glucamine salt of d 2-(6-methoxy-2-naphthyl)propionic acid] | 7 | 
4 | COc1ccc2cc([C@H](C)C(=O)O)ccc2c1 [N-n-propyl-D-glucamine salt of d 2-(6-methoxy-2-naphthyl)pro] [N-n-propyl-D-glucamine salt of d 2-(6-methoxy-2-naphthyl)propionic acid] | 20 | 
5 | COc1ccc2cc([C@H](C)C(=O)O)ccc2c1 [N-cyclopropyl-D-glucamine salt of d 2-(6-methoxy-2-naphthyl)] [N-cyclopropyl-D-glucamine salt of d 2-(6-methoxy-2-naphthyl)propionic acid] |  | Oral Anti-Inflammatory Activity (on a molar equivalent basis) (Phenylbutazone = 1) [1, 4]: 9
6 | COc1ccc2cc([C@H](C)C(=O)O)ccc2c1 [N-ethyl-D-glucamine salt of d 2-(6-methoxy-2-naphthyl)propio] [N-ethyl-D-glucamine salt of d 2-(6-methoxy-2-naphthyl)propionic acid] | 17 | 
7 | COc1ccc2cc([C@H](C)C(=O)O)ccc2c1 [N-cyclooctyl-D-glucamine salt of d 2-(6-methoxy-2-naphthyl)p] [N-cyclooctyl-D-glucamine salt of d 2-(6-methoxy-2-naphthyl)propionic acid] |  | Oral Anti-Inflammatory Activity (on a molar equivalent basis) (Phenylbutazone = 1) [1, 4]: 20
8 | COc1ccc2cc([C@H](C)C(=O)O)ccc2c1 [N-n-octyl-D-glucamine salt of d 2-(6-methoxy-2-naphthyl)prop] [N-n-octyl-D-glucamine salt of d 2-(6-methoxy-2-naphthyl)propionic acid] | 17 | 
9 | CCCCCCCCNC[C@H](O)[C@@H](O)[C@H](O)[C@H](O)CO [N-n-octyl-D-glucamine] |  | solubility in water (in words) [2]: substantially insoluble in water
